This note sets out measurements from US4598076A, “2-pyrrolin-3-carbonitril-derivatives, pharmaceutical compositions containing them and their anti-inflammatory and ulcer protective activity” (Warner-Lambert Company, priority 1982, dated 1986).

A short description of series [1]: Acute toxicity on mice (LD50, 7 day observation). As to conditions: mouse, in vivo, po; male NMRI mice, intragastral, 7 day observation. The method, then:
(§1) The determination of the acute toxicity was carried out on male mice (NMRI) with a body weight of from 18 to 23 g. All the experimental animals fasted for 20 hours before commencement of the experiment. Water was available ad libitum. Each dosage grouping contained 4 animals. The dosage sequence was logarithmic. The test compounds were administered intragastrally as suspensions in 1% tragacanth slurry. The volume administered was 20 ml./kg. body weight.
(§2) The following Table gives the LD50 values after a 7 day observation period of the animals: […]

Series [2] has as its system stomach ulcers in rats induced by indomethacin. In words: Ulcer-protective action on stomach ulcers in rats induced by indomethacin. Format: in vivo, rats (SIV 50). The following applies: with 40 mg/kg indomethacin, 5 hours. The method, then:
The experimental animals used were male rats (SIV 50), fasted for 20 hours, with a body weight of 170 to 220 g. Water was available ad libitum. The animals were simultaneously given intragastrally 40 mg./kg. indomethacin and the test substance in the form of a suspension in 0.8% "Methocel". The control animals only received the corresponding dosage of indomethacin. 10 animals were used for each experimental group. The volume administered was 10 ml./kg. body weight. 5 hours after administration, the animals were sacrificed. After removal of the stomach and opening along the curvatura major, this was investigated with a stereomagnifier for the presence of ulcers. […] The ulcer index of the animals treated with indomethacin and test substance was compared with that of the control animals which had only been treated with indomethacin and the ulcer inhibition calculated therefrom as a percentage.

Series [3] concerns carrageenin oedema in rats. In words: Antiphlogistic action against carrageenin oedema in rats. Format: in vivo, rats (SIV 50). As to conditions: for inhibition of the paw volume: 3 hours after carrageenin; for antiphlogistic properties (in words): carrageenin oedema. As for the experimental part:
The experimental animals used were male rats (SIV 50), fasting for 20 hours, with a body weight of 110 to 160 g. Water was available ad libitum. After determination of the initial value of the paw volume of the right hind leg, the test substance was administered intragastrally as a suspension in 1% tragacanth slurry. 10 animals were used per dosage group. The volume administered was 20 ml./kg. body weight. The paw volume was measured by means of mercury displacement. 60 minutes after intragastral administration of the test substances, 0.1 ml. of a 1% carrageenin solution was injected subplantarily into the right hind paw. 1 and 3 hours after injection of the carrageenin, the paw volume of the oedematous paw was measured. The increase of the paw volume of the test substance-treated animals after 3 hours was compared with that of the control animals and the inhibition of the paw oedema by the test substance was calculated therefrom as a percentage.

Series [4] concerns male mice (NMRI). Briefly: Acute toxicity on mice (LD50, 7 day observation). As to conditions: mouse, in vivo. As for the experimental part:
as §1, §2

The subject of series [5] is gastric juice secretion in rats. In words: Influence on gastric juice secretion in rats (Shay, pyloric ligature). The following applies: 4 hours after pyloric ligature. Format: in vivo, rats (SIV 50). As for the experimental part:
According to the method described by H. Shay et al. (Gastroenterology, 5, 43-61/1945), male rats (SIV 50) with a body weight of 160 to 200 g. were fasted for 48 hours before commencement of the experiment. Water was available to the animals ad libitum. The test substances were administered intragastrally as a suspension in 1% tragacanth slurry. The volume administered was 10 ml./kg. body weight. 8 animals were used per experimental group. One hour after administration of the substance, a pyloric ligature was applied under light ether narcosis. 4 hours after this intervention, the animals were sacrificed. The extirpated stomach was opened up along the curvatura major and the volume of the secretion was measured and compared with the data obtained from the control group.

For orientation: LD50 means the dose expected to kill half of the subjects tested. A higher LD50 goes with a less toxic substance. `CCN(CC)CCCSC1=C(C#N)C(c2ccc(N(C)C)cc2)(c2cccnc2)C(=O)N1` (stereo not drawn) [Example 4k, 2-(3-diethylaminopropylthio)-4-(4-dimethylaminophenyl)-5-oxo-4-(3-pyridyl)-2-pyrroline-3-carbonitrile]: in series [1], the LD50 at 168 h stood at 300 mg/kg. Moreover, the ulcer inhibition in series [2] (50 mg/kg intragastral) came out at 33%; in series [2] (100 mg/kg intragastral), 94%.

For `N#CC1=C(SCCN2CCCC2)NC(=O)C1(c1ccccc1)c1cccs1` (stereo not drawn) [Example 6f, 5-oxo-4-phenyl-2-(2-pyrrolidinoethylthio)-4-(2-thienyl)-2-pyrroline-3-carbonitrile], the LD50 at 168 h in series [1] was above 1600 mg/kg. Besides, the “inhibition of the paw volume” value stood at 24% in series [3] (125 mg/kg intragastrally) and 45% in series [3] (250 mg/kg intragastrally).

`CSC1=C(C#N)C(c2ccc(N(C)C)cc2)(c2cccnc2)C(=O)N1` (stereo not drawn) [Example 4i, 4-(4-dimethylaminophenyl)-2-methylthio-5-oxo-4-(3-pyridyl)-2-pyrroline-3-carbonitrile] came in with a median lethal dose (LD50) at 168 h in series [1] above 1600 mg/kg. In addition, in series [4], the “compatibility (in words)” value was “good compatibility”. In addition, the ulcer inhibition in series [2] (50 mg/kg intragastral) was 88%.

`CN(C)c1ccc(C2(c3cccnc3)C(=O)NC(SCCN3CCOCC3)=C2C#N)cc1` (stereo not drawn) [Example 4b, 4-(4-dimethylaminophenyl)-2-(2-morpholinoethylthio)-5-oxo-4-(3-pyridyl)-2-pyrroline-3-carbonitrile] registered an LD50 at 168 h in series [1] of 400 mg/kg. Further, the results for the “inhibition of gastric juice secretion” value in series [5] (50 mg/kg intragastral), in series [5] (100 mg/kg intragastral) and in series [5] (200 mg/kg intragastral) were 24%, 63% and 76%, respectively.

Turning to `CCN(CC)CCSC1=C(C#N)C(c2ccc(N(C)C)cc2)(c2cccnc2)C(=O)N1` (stereo not drawn) [Example 4a, 2-(2-diethylaminoethylthio)-4-(4-dimethylaminophenyl)-5-oxo-4-(3-pyridyl)-2-pyrrolin-3-carbonitril], the LD50 at 168 h in series [1] was found to be 800 mg/kg. For the same compound, the “inhibition of the paw volume” value stood at 59% in series [3] (50 mg/kg intragastrally) and 77% in series [3] (100 mg/kg intragastrally). Moreover, the “antiphlogistic properties (in words)” value in series [3] is reported as “most effective compounds”. Also, the “inhibition of gastric juice secretion” value turned out to be 45% in series [5] (62.5 mg/kg intragastral), 64% in series [5] (125 mg/kg intragastral) and 73% in series [5] (250 mg/kg intragastral). In addition, the ulcer inhibition in series [2] (125 mg/kg intragastral) came to 84%.

As to `CN(C)c1ccc(C2(c3cccnc3)C(=O)NC(SCCN3CCCC3)=C2C#N)cc1` (stereo not drawn) [Example 4e, 4-(4-dimethylaminophenyl)-2-(2-pyrrolidinoethylthio)-5-oxo-4-(3-pyridyl)-2-pyrroline-3-carbonitrile], the 50% lethal dose (LD50) at 168 h in series [1] was above 1600 mg/kg. Also, the entries for the “inhibition of the paw volume” value in series [3] (25 mg/kg intragastrally) and in series [3] (50 mg/kg intragastrally) were 37% and 70%, respectively. Further, the “antiphlogistic properties (in words)” value in series [3] was “most effective compounds”.

`N#CC1=C(SCCN2CCOCC2)NC(=O)C1(c1ccccc1)c1cccs1` (stereo not drawn) [Example 6c, 2-(2-morpholinoethylthio)-5-oxo-4-phenyl-4-(2-thienyl)-2-pyrroline-3-carbonitrile] gave a median lethal dose (LD50) at 168 h in series [1] above 1600 mg/kg. Moreover, the “inhibition of the paw volume” value stood at 6% in series [3] (125 mg/kg intragastrally) and 45% in series [3] (250 mg/kg intragastrally).

`CN(C)c1ccc(C2(c3cccnc3)C(=O)NC(SCCN3CCCCC3)=C2C#N)cc1` (stereo not drawn) [Example 4d, 4-(4-dimethylaminophenyl)-2-(2-piperidinoethylthio)-5-oxo-4-(3-pyridyl)-2-pyrroline-3-carbonitrile] registered an LD50 at 168 h in series [1] of 1600 mg/kg. The “inhibition of the paw volume” value in series [3] (50 mg/kg intragastrally) was 26%; in series [3] (125 mg/kg intragastrally), 83%. Further, the entries for the “inhibition of gastric juice secretion” value in series [5] (125 mg/kg intragastral) and in series [5] (250 mg/kg intragastral) were 48% and 76%, respectively.

In series [1], `CN(C)CCSC1=C(C#N)C(c2ccc(N(C)C)cc2)(c2cccnc2)C(=O)N1` (stereo not drawn) [Example 4g, 2-(2-dimethylaminoethylthio)-4-(4-dimethylaminophenyl)-5-oxo-4-(3-pyridyl)-2-pyrroline-3-carbonitrile] showed an LD50 at 168 h of 1600 mg/kg. In addition, the entries for the “inhibition of the paw volume” value in series [3] (50 mg/kg intragastrally) and in series [3] (100 mg/kg intragastrally) were 25% and 61%, respectively.
